According to patent US5591714A, “Derivatives of A82846” (priority 1994, dated 1997):
≈ marks a conversion by molar mass, not a printed value.

Key:
[1] = system: Enterococcus faecalis 2041; assay: MIC, standard agar-dilution assay; format: cell-based
Experimental: (§1) The formula I compounds have in vitro and in vivo activity against Gram-positive pathogenic bacteria. The MIC's were determined using a standard agar-dilution assays.
^c Formerly Streptococcus faecalis 2041

Enterococcus faecium X66 = assay: MIC, standard agar-dilution assay; format: cell-based
Experimental: as §1
^b Formerly Streptococcus faecium X66

[2] = system: Staphylococcus epidermidis EPI270; assay: MIC, standard agar-dilution assay; format: cell-based
Experimental: as §1

[3] = system: Haemophilus influenzae 76; assay: MIC, standard agar-dilution assay; format: cell-based
Experimental: as §1

Escherichia coli EC14 = assay: MIC, standard agar-dilution assay; format: cell-based
Experimental: as §1

[4] = system: Staphylococcus aureus NRRL X1.1; assay: MIC, standard agar-dilution assay; format: cell-based
Experimental: as §1

[5] = system: Staphylococcus aureus X400; assay: MIC, standard agar-dilution assay; format: cell-based
Experimental: as §1

[6] = system: Streptococcus pyogenes C203; assay: MIC, standard agar-dilution assay; format: cell-based
Experimental: as §1

[7] = system: Klebsiella pneumoniae KAE; assay: MIC, standard agar-dilution assay; format: cell-based
Experimental: as §1

Escherichia coli N10 = assay: MIC, standard agar-dilution assay; format: cell-based
Experimental: as §1

[8] = system: Klebsiella pneumoniae X26; assay: MIC, standard agar-dilution assay; format: cell-based
Experimental: as §1

[9] = system: Klebsiella pneumoniae X68; assay: MIC, standard agar-dilution assay; format: cell-based
Experimental: as §1

[10] = system: Staphylococcus epidermidis 222; assay: MIC, standard agar-dilution assay; format: cell-based
Experimental: as §1

[11] = system: Staphylococcus aureus V41; assay: MIC, standard agar-dilution assay; format: cell-based
Experimental: as §1

[12] = system: Haemophilus influenzae C.L.; assay: MIC, standard agar-dilution assay; format: cell-based
Experimental: as §1

Streptococcus pneumoniae = assay: In vivo activity, experimentally infected mice (ED50); details: Streptococcus pneumoniae infection; doses administered subcutaneously to mice 1 and 4 hours postinfection
[13] = system: Streptococcus pneumoniae Park 1; format: cell-based
Experimental: as §1

[14] = system: Staphylococcus aureus S13E; format: cell-based
Experimental: as §1

Staphylococcus aureus = assay: In vivo activity, experimentally infected mice (ED50); details: Staphylococcus aureus infection; doses administered subcutaneously to mice 1 and 4 hours postinfection
Streptococcus pyogenes = assay: as above; details: Streptococcus pyogenes infection; doses administered subcutaneously to mice 1 and 4 hours postinfection
Escherichia coli TEM = assay: MIC, standard agar-dilution assay; format: cell-based
Experimental: as §1

| SMILES | MIC [1] | MIC (Enterococcus faecium X66) | MIC [2] [µg/mL] | MIC [3] [µg/mL] | MIC (Escherichia coli EC14) [µg/mL] | MIC [4] | MIC [5] | MIC [6] | MIC [7] [µg/mL] | MIC (Escherichia coli N10) [µg/mL] | MIC [8] [µg/mL] | MIC [9] [µg/mL] | MIC [10] | MIC [11] | MIC [12] [µg/mL] | ED50 (Streptococcus pneumoniae) [mg/kg/2] | MIC [13] | MIC [14] | ED50 (Staphylococcus aureus) [mg/kg/2] | ED50 (Streptococcus pyogenes) [mg/kg/2] | other results |
| --- | --- | --- | --- | --- | --- | --- | --- | --- | --- | --- | --- | --- | --- | --- | --- | --- | --- | --- | --- | --- | --- |
| CNC(CC(C)C)C(=O)NC1C(=O)NC(CC(N)=O)C(=O)NC2C(=O)NC3C(=O)NC(C(=O)NC(C(=O)O)c4cc(O)cc(O)c4-c4cc3ccc4O)C(OC3CC(C)(NCc4ccc(F)cc4)C(O)C(C)O3)c3ccc(c(Cl)c3)Oc3cc2cc(c3OC2OC(CO)C(O)C(O)C2OC2CC(C)(N)C(O)C(C)O2)Oc2ccc(cc2Cl)C1O (stereo not drawn) [Compound 66] | 1 µg/mL (≈ 0.588 µM) | 1 µg/mL (≈ 0.588 µM) | 2 (≈ 1.18 µM) | > 128 | > 128 | .5 µg/mL (≈ 0.294 µM) | 1 µg/mL (≈ 0.588 µM) | .5 µg/mL (≈ 0.294 µM) | > 128 | > 128 | > 128 | > 128 | 1 µg/mL (≈ 0.588 µM) | 1 µg/mL (≈ 0.588 µM) | > 128 | 0.22 | .25 µg/mL (≈ 0.147 µM) | 1 µg/mL (≈ 0.588 µM) | 0.37 | 0.18 |  |
| CNC(CC(C)C)C(=O)NC1C(=O)NC(CC(N)=O)C(=O)NC2C(=O)NC3C(=O)NC(C(=O)NC(C(=O)O)c4cc(O)cc(O)c4-c4cc3ccc4O)C(OC3CC(C)(N)C(O)C(C)O3)c3ccc(c(Cl)c3)Oc3cc2cc(c3OC2OC(CO)C(O)C(O)C2OC2CC(C)(NCc3ccc(F)cc3)C(O)C(C)O2)Oc2ccc(cc2Cl)C1O (stereo not drawn) [Compound 67] | .5 µg/mL (≈ 0.294 µM) | .5 µg/mL (≈ 0.294 µM) | 2 (≈ 1.18 µM) | > 128 | > 128 | .5 µg/mL (≈ 0.294 µM) | 1 µg/mL (≈ 0.588 µM) | .25 µg/mL (≈ 0.147 µM) | > 128 | > 128 | > 128 | > 128 | .5 µg/mL (≈ 0.294 µM) | 1 µg/mL (≈ 0.588 µM) | > 128 | < 0.12 | .125 µg/mL (≈ 0.0735 µM) | 1 µg/mL (≈ 0.588 µM) | 0.33 | < 0.12 |  |
| CNC(CC(C)C)C(=O)NC1C(=O)NC(CC(N)=O)C(=O)NC2C(=O)NC3C(=O)NC(C(=O)NC(C(=O)O)c4cc(O)cc(O)c4-c4cc3ccc4O)C(OC3CC(C)(NCc4ccc(F)cc4)C(O)C(C)O3)c3ccc(c(Cl)c3)Oc3cc2cc(c3OC2OC(CO)C(O)C(O)C2OC2CC(C)(NCc3ccc(F)cc3)C(O)C(C)O2)Oc2ccc(cc2Cl)C1O (stereo not drawn) [Compound 68] |  |  |  |  |  |  |  |  |  |  |  |  |  |  |  | 0.12 |  |  | 0.80 | 0.09 |  |
| CCCCCNC1(C)CC(OC2c3ccc(cc3)Oc3cc4cc(c3OC3OC(CO)C(O)C(O)C3O)Oc3ccc(cc3Cl)C(O)C(NC(=O)C(CC(C)C)NC)C(=O)NC(CC(N)=O)C(=O)NC4C(=O)NC3C(=O)NC2C(=O)NC(C(=O)O)c2cc(O)cc(O)c2-c2cc3ccc2O)OC(C)C1O (stereo not drawn) [Compound 71] | 8 µg/mL (≈ 5.39 µM) | 8 µg/mL (≈ 5.39 µM) | 1 (≈ 0.673 µM) | > 128 | > 128 | 2 µg/mL (≈ 1.35 µM) | 4 µg/mL (≈ 2.69 µM) | 2 µg/mL (≈ 1.35 µM) | > 128 | > 128 | > 128 | > 128 | 4 µg/mL (≈ 2.69 µM) | 2 µg/mL (≈ 1.35 µM) | > 128 |  | 2 µg/mL (≈ 1.35 µM) | 2 µg/mL (≈ 1.35 µM) |  |  | MIC (Escherichia coli TEM): > 128 µg/mL |
| CNC(CC(C)C)C(=O)NC1C(=O)NC(CC(N)=O)C(=O)NC2C(=O)NC3C(=O)NC(C(=O)NC(C(=O)O)c4cc(O)cc(O)c4-c4cc3ccc4O)C(OC3CC(C)(NCc4ccccc4)C(O)C(C)O3)c3ccc(c(Cl)c3)Oc3cc2cc(c3O)Oc2ccc(cc2Cl)C1O (stereo not drawn) [Compound 79] | 1 µg/mL (≈ 0.726 µM) | 1 µg/mL (≈ 0.726 µM) |  | > 128 | > 128 | .25 µg/mL (≈ 0.182 µM) | .5 µg/mL (≈ 0.363 µM) | .25 µg/mL (≈ 0.182 µM) | > 128 | > 128 | > 128 | > 128 | .5 µg/mL (≈ 0.363 µM) | .25 µg/mL (≈ 0.182 µM) | > 128 | 0.71 | .25 µg/mL (≈ 0.182 µM) | .25 µg/mL (≈ 0.182 µM) | > 1.0 | 0.71 | MIC (Escherichia coli TEM): > 128 µg/mL |
